What all share (format): cell membranes
The target of test [1] is Cannabinoid receptor 1 (Rattus norvegicus) (UniProt P20272). The test can be described thus: Binding affinity towards CB1 receptor in rat brain membrane by displacement of [3H]SR-141,716A relative to HU-210. (In general: Displacement assays read how much labelled ligand stays bound in the presence of the test substance.)
Test [2] addresses T1, Cannabinoid receptor 1 (Rattus norvegicus, UniProt P20272). The test can be described thus: Binding affinity towards cannabinoid CB1 receptor in rat brain membrane by displacement of [3H]SR-141,716A.
The target in test [3] is T1, Cannabinoid receptor 1. The test can be described thus: Binding affinity towards cannabinoid CB1 receptor in rat brain membrane by displacement of [3H]SR-141,716A at 50 uM.

SMILES strings stand for the structures.

One may read the Ki as the dissociation constant of the complex between target and ligand, obtained from inhibition or displacement. Low readings indicate tighter binding, high ones weaker binding.

T1 sequence (P20272 whole entry): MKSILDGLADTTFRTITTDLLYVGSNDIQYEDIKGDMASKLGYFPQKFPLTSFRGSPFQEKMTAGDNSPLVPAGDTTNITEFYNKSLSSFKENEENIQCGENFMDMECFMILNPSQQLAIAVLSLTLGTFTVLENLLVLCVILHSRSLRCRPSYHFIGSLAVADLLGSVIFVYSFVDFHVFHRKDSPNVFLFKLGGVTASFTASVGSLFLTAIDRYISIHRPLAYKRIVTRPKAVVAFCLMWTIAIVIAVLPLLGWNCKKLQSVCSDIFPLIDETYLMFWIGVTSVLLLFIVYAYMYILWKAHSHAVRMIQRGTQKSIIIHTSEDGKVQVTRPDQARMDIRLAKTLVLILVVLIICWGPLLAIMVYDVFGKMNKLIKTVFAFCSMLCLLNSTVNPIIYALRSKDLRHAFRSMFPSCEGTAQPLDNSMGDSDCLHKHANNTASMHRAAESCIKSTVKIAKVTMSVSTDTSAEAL
Cannabinoid receptor 1 (Rattus norvegicus), sequence (P20272 whole entry): as above

Take `CCCCC/C=C\C/C=C\CCCCCCCCOC(CO)CO`: in test [1], the Krel was found to be 5620. The Ki on Cannabinoid receptor 1 [2] came to 22.5 µM.

Compound `CCCCC/C=C\C/C=C\C/C=C\C/C=C\CCCCOCC(O)CO` (stereo in doubt; 5b) came in with a Krel in test [1] of 625.

For the compound `CCCCC/C=C\C/C=C\C/C=C\C/C=C\CCCCOCC(O)CO` (stereo in doubt; 5a) [listing 1 of 2 here], the Krel in test [1] came out at 1250.

`CCCCCCCCCCCCCCCCOC(CO)CO` yielded a Krel in test [1] of over 12500. The Ki at Cannabinoid receptor 1 [2] is over 50 µM.

In turn, `CCCCC/C=C\C/C=C\C/C=C\CCCCCOC(CO)CO` displayed a Krel in test [1] of 3480. Further, the Ki at Cannabinoid receptor 1 [2] worked out at 13.9 µM.

Take `CCCCC/C=C\C/C=C\C/C=C\C/C=C\CCCCOCC(O)CO` (stereo in doubt; 5a) [listing 2 of 2 here]: the Ki at Cannabinoid receptor 1 [2] is 5 µM.

With `CCCCCCCC/C=C\CCCCCCCCOC(CO)CO`, in test [1], the Krel is 6400. Also, at Cannabinoid receptor 1 [2], the Ki is 25.6 µM.

In test [1], `CCCCCC[C@@H]1C[C@@H]1C#CCCCCCCCCOC(CO)CO` displayed a Krel of over 125000. The compound further registered a Ki at Cannabinoid receptor 1 [2] of over 50 µM.

For the compound `CCCCCCCCCCCCCCCCOCC(O)CO` (centres undefined), the Krel in test [1] is over 12500. Further, the inhibitory constant (Ki) at Cannabinoid receptor 1 [2] was over 50 µM.

Compound `CCCCCCCC/C=C\CCCCCCCCCCCCOC(CO)CO` yielded a Ki at Cannabinoid receptor 1 [3] of over 50 µM. The Krel in test [1] is over 12500.

`CC(C)=CCC/C(C)=C/CC/C(C)=C/COC(CO)CO`: the Krel in test [1] is over 12500. The same compound showed an inhibition constant (Ki) on Cannabinoid receptor 1 [2] of over 50 µM.

Compound `CCCCCCCC[C@@H]1C[C@@H]1CCCCCCCCCCCCOC(CO)CO` (single isomer, unassigned) yielded a Krel in test [1] of over 125000. The compound further gave a Ki on Cannabinoid receptor 1 [2] of over 50 µM.

In turn, `CCCCCC/C=C/C#CCCCCCCCCOC(CO)CO` displayed an inhibition constant Ki at Cannabinoid receptor 1 [3] of over 50 µM. Further, the Krel in test [1] was over 125000.

For the compound `CC(C)=CCC/C(C)=C/COC(CO)CO`, the Krel in test [1] is over 12500. Further, the Ki at Cannabinoid receptor 1 [2] is over 50 µM.

On to `CC(C)=CCC/C(C)=C/COCC(O)CO` (centres undefined), for which, in test [1], the Krel was over 12500. Besides, at Cannabinoid receptor 1 [2], the Ki was over 50 µM.

Consider `CCCCCCCC[C@@H]1C[C@@H]1CCCCCCCCOC(CO)CO`, for which the Krel in test [1] was over 125000. The compound also came in with an inhibitory constant (Ki) on Cannabinoid receptor 1 [2] of over 50 µM.

These data come from ChEMBL document CHEMBL1136419, “Homologues and isomers of noladin ether, a putative novel endocannabinoid: interaction with rat cannabinoid CB(1) receptors” (Bioorg Med Chem Lett, 2003).
